Assay results as given in patent US20110212892A1, “AGENT FOR TREATMENT OF DIABETES” (Dainippon Sumitomo Pharma Co., Ltd., priority 2008, published 2011).

How the values were obtained:
Type in all cases: in vivo
db/db mice [1] = assay: Oral glucose tolerance test on Day 28 in db/db mice given agents in feed (Example 1-2); settings: feed with 0.02 (w/w) % Compound A and/or 0.06 (w/w) % sitagliptin; for Blood glucose level after the glucose load on Day 28 / Area under the curve of blood glucose level after the glucose load on Day 28: OGTT 2 g/kg glucose, mean ± SD, n = 8; for Blood glucose level after the glucose load on Day 28: fasted overnight; for Area under the curve of blood glucose level in oral glucose tolerance test versus control (in words): Day 28
Source text: (§1) The antidiabetic action resulting from the combination of an insulin secretagogue (DPP-4 inhibitor) and Compound A was studied by using db/db mice (8 weeks old, male, CLEA Japan, Inc.). The db/db mice were allocated to 4 groups (8 mice/group). The mice in Group 1 were given powdered feed (control), Group 2 were given powdered feed containing 0.02 (w/w) % of Compound A, Group 3 were given powdered feed containing 0.06 (w/w) % of sitagliptin, and Group 4 were given powdered feed containing 0.02 (w/w) % of Compound A and 0.06 (w/w) % of sitagliptin. In addition, the powdered feed mentioned-above were all the same (i.e. trade name: CE-2, CLEA Japan, Inc.). An oral glucose tolerance test was performed on Day 28. To be more specific, on the day before the test, the mice were fasted overnight; and on the test day, 2 g/kg of glucose was administered by gavage to study the changes in blood glucose levels. Glycosylated hemoglobin (hereinafter, referred to as “HbAlc”) was measured on Day 33.

db/db mice [2] = assay: HbA1c change to Day 33 in db/db mice given agents in feed (Example 1-2); settings: start of experiment to Day 33, feed with 0.02 (w/w) % Compound A and/or 0.06 (w/w) % sitagliptin; for Amounts of change in HbA1c before and after treatment: mean ± SD, n = 8
Source text: as §1

db/db mice [3] = assay: Blood glucose level on Day 11 in db/db mice, Compound A and metformin (Example 1-3); settings: Compound A 30 mg/kg and/or metformin 300 mg/kg by gavage once a day for 14 days; for Blood glucose level: Day 11, mean ± SD, n = 8, in mg/dL (unit assumed)
Experimental: (§2) The antidiabetic action resulting from the combination of an insulin-sensitizing drug and a biguanide was studied by using db/db mice (8 weeks old, male, CLEA Japan, Inc.). The db/db mice were allocated to 4 groups (8 mice/group). Among the 4 groups, a vehicle (0.5% methylcellulose solution) was administered to Group 1 by gavage once a day for 14 days from the day of grouping (Day 1); Compound A (30 mg/kg) was administered to Group 2, metformin (300 mg/kg) was administered to Group 3, and Compound A (30 mg/kg) and metformin (300 mg/kg) were administered to Group 4 under the same condition as Group 1. Blood glucose and HbAlc levels were measured on Day 11 and Day 15, respectively.

C57BL/KsJ-db/db mice [4] = assay: Blood glucose after glibenclamide administration in db/db mice repeatedly given Compound A (Example 1-1); settings: for Blood glucose level after the glibenclamide administration (relative value when blood glucose level at 0 hr is 100%) / Area under the curve of blood glucose level after the glibenclamide administration (relative value when blood glucose level at 0 hr is 100%): vehicle or Compound A 30 mg/kg once a day 15 days, next day vehicle or glibenclamide 10 mg/kg by gavage, n = 8; for Blood glucose level after the glibenclamide administration (relative value when blood glucose level at 0 hr is 100%): feed removed; for Blood glucose level after the glibenclamide administration (relative value when blood glucose level at 0 hr is 100%) / Blood glucose level before the glibenclamide administration / Area under the curve of blood glucose level after the glibenclamide administration (relative value when blood glucose level at 0 hr is 100%): mean ± SD; for Blood glucose level before the glibenclamide administration: Compound A 30 mg/kg by gavage once a day for 15 days, next day, before glibenclamide/vehicle, n = 8, 30 mg/kg; for Decrease of blood glucose levels after glibenclamide/vehicle administration (in words): vehicle or Compound A 30 mg/kg 15 days, then vehicle or glibenclamide 10 mg/kg
Experimental: The antidiabetic action resulting from the combination of an insulin secretagogue (SU drug) and Compound A was studied by using C57BL/KsJ-db/db mice (hereinafter, referred to as “db/db mice”) (9 weeks old, male, CLEA Japan, Inc.) as a model of type 2 diabetes. The db/db mice were allocated to 4 groups (8 mice/group), and each group was put into a cage provided with feed. Among the 4 groups, a vehicle (0.5% methylcellulose solution) was administered to Groups 1 and 2 by gavage once a day for 15 days, and Compound A (30 mg/kg) was administered to Groups 3 and 4 under the same condition as Groups 1 and 2. On the next day after the last administration, the vehicle was administered to Groups 1 and 3, and glibenclamide (10 mg/kg) was administered to Groups 2 and 4, both by gavage; then the feed were removed from the cages and the changes in blood glucose levels were studied in each group. […]

db/db mice [5] = assay: HbA1c change Day 1 to Day 15 in db/db mice, Compound A and metformin (Example 1-3); settings: Compound A 30 mg/kg and/or metformin 300 mg/kg by gavage once a day for 14 days
Experimental: as §2

C57BL/KsJ-db/db mice [6] = assay: Blood insulin after glibenclamide administration in db/db mice repeatedly given Compound A (Example 1-1); settings: vehicle or Compound A 30 mg/kg once a day 15 days, next day vehicle or glibenclamide 10 mg/kg by gavage, mean ± SD, n = 8
Experimental: The antidiabetic action resulting from the combination of an insulin secretagogue (SU drug) and Compound A was studied by using C57BL/KsJ-db/db mice (hereinafter, referred to as “db/db mice”) (9 weeks old, male, CLEA Japan, Inc.) as a model of type 2 diabetes. The db/db mice were allocated to 4 groups (8 mice/group), and each group was put into a cage provided with feed. Among the 4 groups, a vehicle (0.5% methylcellulose solution) was administered to Groups 1 and 2 by gavage once a day for 15 days, and Compound A (30 mg/kg) was administered to Groups 3 and 4 under the same condition as Groups 1 and 2. On the next day after the last administration, the vehicle was administered to Groups 1 and 3, and glibenclamide (10 mg/kg) was administered to Groups 2 and 4, both by gavage; then the feed were removed from the cages and the changes in blood glucose levels were studied in each group.
As a result, blood insulin level was higher in Group 4 (i.e. repeatedly administered with Compound A and then with glibenclamide) than in Groups 1 and 2 (i.e. repeatedly administered with the vehicle).

N[C@@H](CC(=O)N1CCn2c(nnc2C(F)(F)F)C1)Cc1cc(F)c(F)cc1F [Sitagliptin, sitagliptin, reference compound]
Blood glucose level after the glucose load on Day 28 (db/db mice [1]; 0 min): 167 ± 15 mg/dL | Blood glucose level after the glucose load on Day 28 (db/db mice [1]; 10 min): 542 ± 81 mg/dL | Blood glucose level after the glucose load on Day 28 (db/db mice [1]; 30 min): 588 ± 125 mg/dL | Blood glucose level after the glucose load on Day 28 (db/db mice [1]; 60 min): 510 ± 95 mg/dL | Blood glucose level after the glucose load on Day 28 (db/db mice [1]; 90 min): 455 ± 100 mg/dL | Blood glucose level after the glucose load on Day 28 (db/db mice [1]; 120 min): 408 ± 107 mg/dL | Area under the curve of blood glucose level in oral glucose tolerance test versus control (in words) (db/db mice [1]): significant difference was not observed | Area under the curve of blood glucose level after the glucose load on Day 28 (db/db mice [1]): 57680 ± 10679 mg·min/dL | Change in HbA1c versus control (in words) (db/db mice [2]): A difference was not observed | Amounts of change in HbA1c before and after treatment (db/db mice [2]): 1.68 ± 0.51%

Cc1ccc(C(=O)c2cccn2C/C=C/c2ccc(COC(C)(C)C(=O)O)cc2)cc1 [Compound A, 2-methyl-2-[(4-{(1E)-3-[2-(4-methylbenzoyl)-1H-pyrrol-1-yl]prop-1-en-1-yl}benzyl)oxy]propanoic acid]
Blood glucose level (Day 11) and amount of HbA1c change (Day 1 to Day 15); single agents versus vehicle, combination versus single agents (in words) (db/db mice [3]): significant decrease of blood glucose level and amount of HbAlc change | Blood glucose level (db/db mice [3]): 321.9 ± 43.5 | Blood glucose level after the glibenclamide administration (relative value when blood glucose level at 0 hr is 100%) (C57BL/KsJ-db/db mice [4]; 1 hr): 100.2 ± 10.2% | Blood glucose level after the glibenclamide administration (relative value when blood glucose level at 0 hr is 100%) (C57BL/KsJ-db/db mice [4]; 2 hr): 96.1 ± 14.2% | Blood glucose level after the glibenclamide administration (relative value when blood glucose level at 0 hr is 100%) (C57BL/KsJ-db/db mice [4]; 4 hr): 93.8 ± 15.9% | Blood glucose level after the glibenclamide administration (relative value when blood glucose level at 0 hr is 100%) (C57BL/KsJ-db/db mice [4]; 6 hr): 93.6 ± 14.1% | Blood glucose level before the glibenclamide administration (C57BL/KsJ-db/db mice [4]; group later given glibenclamide): 323.4 ± 75.7 mg/dL | Blood glucose level before the glibenclamide administration (C57BL/KsJ-db/db mice [4]; group later given vehicle): 332.1 ± 90.8 mg/dL | Decrease of blood glucose levels after glibenclamide/vehicle administration (in words) (C57BL/KsJ-db/db mice [4]): did not | Area under the curve of blood glucose level after the glibenclamide administration (relative value when blood glucose level at 0 hr is 100%) (C57BL/KsJ-db/db mice [4]): 575.6 ± 73.0 % · hr | Amount of change in HbA1c (db/db mice [5]): 0.93 ± 0.28 | Blood insulin level after the glibenclamide administration (relative value when insulin level at 0 hr is 100%) (C57BL/KsJ-db/db mice [6]; 1 hr): 55.9 ± 15.8% | Blood insulin level after the glibenclamide administration (relative value when insulin level at 0 hr is 100%) (C57BL/KsJ-db/db mice [6]; 2 hr): 61.6 ± 17.3% | Area under the curve of blood insulin level after the glibenclamide administration (relative value when insulin level at 0 hr is 100%) (C57BL/KsJ-db/db mice [6]): 136.8 ± 17.7 % · hr | Blood glucose level after the glucose load on Day 28 (db/db mice [1]; 0 min): 146 ± 33 mg/dL | Blood glucose level after the glucose load on Day 28 (db/db mice [1]; 10 min): 500 ± 62 mg/dL | Blood glucose level after the glucose load on Day 28 (db/db mice [1]; 30 min): 633 ± 57 mg/dL | Blood glucose level after the glucose load on Day 28 (db/db mice [1]; 60 min): 566 ± 41 mg/dL | Blood glucose level after the glucose load on Day 28 (db/db mice [1]; 90 min): 457 ± 74 mg/dL | Blood glucose level after the glucose load on Day 28 (db/db mice [1]; 120 min): 412 ± 82 mg/dL | Area under the curve of blood glucose level in oral glucose tolerance test versus control (in words) (db/db mice [1]): significant difference was not observed | Area under the curve of blood glucose level after the glucose load on Day 28 (db/db mice [1]): 59692 ± 4741 mg·min/dL | Change in HbA1c versus control (in words) (db/db mice [2]): A difference was not observed | Amounts of change in HbA1c before and after treatment (db/db mice [2]): 1.28 ± 0.53%

CN(C)C(=N)N=C(N)N [Metformin, metformin, reference compound]
Blood glucose level (Day 11) and amount of HbA1c change (Day 1 to Day 15); single agents versus vehicle, combination versus single agents (in words) (db/db mice [3]): significant decrease of blood glucose level and amount of HbAlc change | Blood glucose level (db/db mice [3]): 323.5 ± 66.3 | Amount of change in HbA1c (db/db mice [5]): 1.09 ± 0.16

COc1ccc(Cl)cc1C(=O)NCCc1ccc(S(=O)(=O)NC(=O)NC2CCCCC2)cc1 [Glibenclamide, glibenclamide, reference compound]
Blood glucose level after the glibenclamide administration (relative value when blood glucose level at 0 hr is 100%) (C57BL/KsJ-db/db mice [4]; 1 hr): 96.2 ± 7.7% | Blood glucose level after the glibenclamide administration (relative value when blood glucose level at 0 hr is 100%) (C57BL/KsJ-db/db mice [4]; 2 hr): 91.3 ± 5.9% | Blood glucose level after the glibenclamide administration (relative value when blood glucose level at 0 hr is 100%) (C57BL/KsJ-db/db mice [4]; 4 hr): 82.9 ± 12.7% | Blood glucose level after the glibenclamide administration (relative value when blood glucose level at 0 hr is 100%) (C57BL/KsJ-db/db mice [4]; 6 hr): 80.9 ± 12.1% | Decrease of blood glucose levels after glibenclamide/vehicle administration (in words) (C57BL/KsJ-db/db mice [4]): no decrease in blood glucose levels | Area under the curve of blood glucose level after the glibenclamide administration (relative value when blood glucose level at 0 hr is 100%) (C57BL/KsJ-db/db mice [4]): 530.0 ± 35.1 % · hr | Blood insulin level after the glibenclamide administration (relative value when insulin level at 0 hr is 100%) (C57BL/KsJ-db/db mice [6]; 1 hr): 75.1 ± 25.1% | Blood insulin level after the glibenclamide administration (relative value when insulin level at 0 hr is 100%) (C57BL/KsJ-db/db mice [6]; 2 hr): 83.3 ± 21.4% | Area under the curve of blood insulin level after the glibenclamide administration (relative value when insulin level at 0 hr is 100%) (C57BL/KsJ-db/db mice [6]): 166.7 ± 31.5 % · hr
